Data reported in PMC12713097, “ARL3 Enhances ERα Stability via USP10 Deubiquitination to Promote Endocrine Resistance and Drive Mitochondrial Metabolic Reprogramming in HR+ Breast Cancer” (Advanced Science, 2025).

Target: ARL3 (Homo sapiens, UniProt P36405)
Experiment: microscale thermophoresis (Monolith NT.[…])
Type: binding

Chain of ARL3 (P36405 2-182): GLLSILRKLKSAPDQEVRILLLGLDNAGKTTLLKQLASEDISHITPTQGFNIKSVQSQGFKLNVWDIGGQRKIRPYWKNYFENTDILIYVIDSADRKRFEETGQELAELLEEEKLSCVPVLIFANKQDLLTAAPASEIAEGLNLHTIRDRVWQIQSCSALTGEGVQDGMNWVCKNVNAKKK

Cc1c(-c2ccc(N3CCc4cccc(C(=O)Nc5nc6ccccc6s5)c4C3)nc2C(=O)O)cnn1CC12CC3CC(CC(C3)C1)C2 [A-1331852]
Kd: 12 µM
